Results reported in patent US8409570B2, “Method of inducing apoptosis using anti-DR5 antibodies” (Genentech, Inc., priority 2005, dated 2013).

How the values were obtained:
[1] = tested on: Colo 205 human colon carcinoma xenografts; assay: Colo 205 human colon carcinoma xenografts in nude mice, tumor growth delay (Example 8); format: in vivo, mouse; details: endpoint tumor volume 1000 mm^3; for tumor growth delay (TGD): Apo2L.0 60 mg/kg i.p. 5/2/5, Apomab 7.3 3 mg/kg i.v. Days 1, 8, B20-4.1 10 mg/kg i.p. Days 1 and 8; for tumor growth delay (TGD), percentage of control median TTE: same regimens
Protocol: Xenografts were initiated from cultured Colo 205 human colon carcinoma cells. […] On the day of tumor cell implant, Colo 205 cells were harvested and resuspended in 50% Matrigel matrix (BD Biosciences) in PBS at a concentration of 5×10^6 cells/mL.
The test materials were kept on ice during dosing, and dosing solutions were subsequently stored at 4° C.
Tumors were measured twice weekly using calipers. […] The time to endpoint (TTE) for each mouse was calculated from the following equation: […]
Where b is the intercept and m is the slope of the line obtained by linear regression of a log-transformed tumor growth data set. The data set was comprised of the first observation that exceeded the study endpoint volume and the three consecutive observations that immediately preceded the attainment of the endpoint volume. […] Animals suffering treatment-related death or non-treatment related death due to metastasis were assigned a TTE value equal to the day of death. Animals suffering non-treatment related death or death of unknown causes were excluded from the TTE calculations.
Treatment outcome was evaluated by tumor growth delay (TGD), which is defined as the increase in the median time to endpoint (TTE) in the treatment group compared to the control group: TGD=T−C,
Treatment may cause partial regression (PR) or complete regression (CR) of tumor in an animal In a PR response, the tumor volume is 50% or less of its Day 1 volume for three consecutive measurements during the course of the study, and equal to or greater than 13.5 mm^3 for one or more of these three measurements. In a CR response, the tumor volume is less than 13 5 mm^3 for one or more of these three measurements during the course of the study. An animal with a CR response at the termination of the study is additionally classified as a tumor-free survivor (TFS). Regression responses were monitored and recorded.
The Logrank test was use to analyze the significance of the differences between the TTE values of treated and control groups. Two-tailed statistical analyses were conducted at significance level P=0.05, with results deemed significant at 0.01 P 0.05, and highly significant at P<0.01.
Median tumor growth curves show group median tumor volumes as a function of time.

[2] = tested on: SKMES-1 human NSCLC xenograft; assay: SKMES-1 human NSCLC xenograft, tumor growth delay (Example 9); details: for median TTE: 1500 mm^3 endpoint volume, 45-day study, control median TTE 18.9 days; for TGD, % of control / TGD: versus vehicle control; for TGD, % of control: maximum achievable 138%; for TGD: maximum achievable 26.1 days
Excerpt: Xenografts were initiated from SKMES-1 lung tumors maintained by serial transplantation at PRC. Each test mouse received a 1 mm^3 SKMES-1 tumor fragment implanted subcutaneously in the right flank, and tumor growth was monitored. Thirteen days later, designated as Day 1 of the study, individual tumor volumes ranged from 63 to 144 mm^3, and the animals were sorted into four groups each consisting of ten mice and two groups each consisting of nine mice. Mean tumor volumes were 93 to 95 mm^3.
All test materials were provided ready to dose at 0.1 mL per 20 g body weight (5 mL/kg), and were stored at −80° C. upon receipt. The test materials were thawed on the first day of dosing, kept on ice during dosing, then subsequently stored at 4° C. Carboplatin ([…] ® injection, Bristol Myers Squibb) was diluted with 5% dextrose in water (D5W) to yield the desired dose in a volume of 0.2 mL per 10 g body weight (10 mL/kg). Paclitaxel (Natural Pharmaceuticals, Inc.) was diluted with D5W on each day of dosing from a 10× stock solution to yield a vehicle consisting of 5% ethanol and 5% Cremophor EL in 90% D5W (5% EC vehicle), so that the desired dose was delivered in 0.1 mL per 20 g body weight.
Group 1 (vehicle control) mice received vehicle administered intraperitoneally once daily for five days (i.p. qd×5), and served as tumor growth controls. […] Each dose was administered in the volume indicated in the previous section, and was scaled to the body weight of the animal.

[3] = tested on: human Colo 205 colon carcinoma xenograft; assay: Human Colo 205 carcinoma xenograft model, tumor growth delay (Example 10); details: for TGD: maximum possible 193%, all treatments i.p.; for MTV(n), median tumor volume on Day 61: n = mice remaining on Day 61
Protocol: The animals were fed ad libitum water and NIH 31 Modified and Irradiated Lab Diet® consisting of 18.0% crude protein, 5.0% crude fat, and 5.0% crude fiber. The mice were housed on irradiated ALPHA-Dri® Bed-O'Cobs® Laboratory Animal Bedding in static microisolators on a 12-hour light cycle at 21-22° C. and 40-60% humidity.
Human Colo 205 colon carcinoma cells were cultured in RPMI 1640 medium containing 100 units/mL penicillin G sodium, 100 μg/mL streptomycin sulfate, 0.25 μg/mL amphotericin B, and 25 μg/mL gentamicin. The medium was supplemented with 10% heat-inactivated fetal bovine serum, 2 mM glutamine, and 1 mM sodium bicarbonate. The tumor cells were cultured in tissue culture flasks in a humidified incubator at 37° C., in an atmosphere of 5% CO2 and 95% air.
The human Colo 205 carcinoma cells used for implantation were harvested during log phase growth and resuspended in 50% matrigel at 5×10^6 cells/mL. Each mouse was injected s.c. in the right flank with 1×10^6 cells (0.2 mL cell suspension). Tumors were monitored twice weekly and then daily as their volumes approached 100-300 mm^3 On Day 1 of the study, animals were sorted into treatment groups with tumor sizes of 108.0-220.5 mm^3 and a group mean tumor size of 149.8 mm^3 Tumor weight may be estimated with the assumption that 1 mg is equivalent to 1 mm^3 of tumor volume.
The test materials were provided ready for dosing. The dosing solutions were stored at 4° C.
Mice were sorted into six groups with ten mice per group. All treatments were administered intraperitoneally (i.p.).
Apo2L.0 and its vehicle were each administered once daily on Days 1-5 (qd×5). […] Control Group 1 mice were treated with the vehicle for Apo2L.0. […] In all groups, the dosing volume of 0.2 ml/20 g mouse was scaled to the body weight of each animal.

[4] = tested on: Colo205 human colon carcinoma cell line; assay: Bioassay: tumor cell growth inhibition/killing (AlamarBlue); format: cell-based; details: Apomab framework variants; last column of Table 12
Protocol: Bioassay: tumor cell growth inhibition/killing. The apparent potency of each antibody variant was determined in an in vitro tumor cell-killing assay. Colo205 human colon carcinoma cell line was cultured in RPMI medium containing 10% fetal bovine serum. […] Cells (20,000/well) were then added to the plates. The plates were incubated at 37° C. for a total of 48 h. AlamarBlue was added to the wells for the last 3 h of incubation. Fluorescence was read using a fluorometer with excitation at 530 nm and emission of 590 nm. The data were analyzed using a four parameter curve-fitting program.

Colo 205 xenograft = Colo 205 xenograft model, Apomabs 23.3, 25.3 and 7.3 (Example 7); format: in vivo, mouse; details: single 3 or 10 mg/kg i.v. dose; 25-day data; FIG. 33
Protocol: All mice were ear tagged for identification. […] Group 4 was administered a single 3 mg/kg/mouse i.v. dose of Apomab 23.3. Group 5 was administered a single […] i.v. dose of Apomab 23.3. […] 24 hours post treatment all mice were weighed. Tumors were measured 2×/week for the first 2 weeks and then weekly for the next 4 weeks. After 6 weeks or when the tumors reached a size of >1000 mm^3, the mice were sacrificed.

[5] = tested on: HCT15 xenograft model of colorectal cancer; assay: HCT15 xenograft model; format: in vivo, mouse; details: Apomab 7.3 10 mg/kg, CPT-11 80 mg/kg, alone or combined; FIG. 26
[6] = tested on: Colo 205 human colon carcinoma xenograft; assay: Colo 205 xenograft athymic nude mouse model (Example 2); format: in vivo
Protocol: All mice were ear-tagged for identification. Once the tumor volume was approximately 100-200 mm^3, the Colo 205 tumor-bearing mice were randomly grouped and treatment was administered.
In some instances, 3 or 4 mice were euthanized from the vehicle and 10 mg/kg groups, and serum and tumors were collected at 5 minutes, 24 hours or 48 hours post treatment for serum drug concentration and tumor histology studies. In the remaining mice, tumor measurements were taken twice a week for the first 2 weeks, then once a week for another 4 weeks.

BxPC3 xenograft = BxPC3 xenograft model of human pancreatic adenocarcinoma; format: in vivo, mouse; details: Apomab 7.3 10 mg/kg i.v., gemcitabine 160 mg/kg ip; FIG. 29
H2122 xenograft = H2122 xenograft model of human lung cancer; format: in vivo, mouse
Protocol: All mice were ear tagged for identification.
All mice were ear tagged for identification. […] Any mice excluded from the treatment groups were euthanized.
Group A was a vehicle-treated control group (0.5 M arginine succinate, 20 mM Tris, 0.02% Tween 20, pH 7.2). […] 48 hours following the first treatment, three mice from each of Groups B, C and D were euthanized, and their tumors were collected as follows. One tumor was preserved in 10% formalin for histology study. One tumor was frozen in liquid nitrogen for RNA studies. One tumor was frozen in liquid nitrogen for Western blot. Tumor measurements were taken 2×/week for the first 2 weeks then 1×/week for the next 4 weeks.

Apo2L.0: soluble form of Apo-2 ligand (TRAIL), 114-281 extracellular domain sequence
tumor growth delay (TGD) [1]: 28.4 days | tumor growth delay (TGD), percentage of control median TTE [1]: 190% | median TTE [2]: 22.9 days | TGD, % of control [2]: 21% | TGD [2]: 4.0 days | median TTE ([3]; 1500 mm^3 endpoint volume, 61-day study, control median TTE 20.8 days): 53.6 days | TGD [3]: 158% | MTV(n), median tumor volume on Day 61 [3]: 1,210 mm^3 | LTTFS (long-term tumor-free survivor) ([3]; ten mice per group): One | T-C ([3]; versus vehicle control): 32.8 days

Apomab 18.3: Apomab version with heavy chain framework residues E LVQ K
Bioassay activity with crosslinking [4]: None

Apomab 25.3: Apomab version with heavy chain framework residues Q LVQ K
anticancer activity (Colo 205 xenograft): significant anticancer activity

Apomab 27.3: Apomab version with heavy chain framework residues E VER K
Bioassay activity with crosslinking [4]: none

CCc1c2c(nc3ccc(OC(=O)N4CCC(N5CCCCC5)CC4)cc13)-c1cc3c(c(=O)n1C2)COC(=O)[C@]3(O)CC [CPT-11, irinotecan, reference compound]
anticancer activity [5]: effective when administered alone

Apomab 7.3: anti-DR5 IgG: heavy chain TH7 (G33A, N53Q, L102Y) + light chain TL3 (Q24S, K51A, R91A); SEQ ID NOS: 18 and 20
reversal of efficacy during test period ([6]; 1 mg/kg and 3 mg/kg doses, 20-day test period, FIG. 23): does not show any reversal during the 20-day test period | reduction of tumor volume ([6]; 1 mg/kg and 3 mg/kg doses, FIG. 23): effective in reducing tumor volume | anticancer activity compared with Apomabs 23.3 and 25.3 ([6]; FIG. 24): far exceeded the activity of Apomabs 23.3 and 25.3 | reduction of (mean) tumor volume ([6]; single intraperitoneal dose 3 or 10 mg/kg, FIGS. 21 and 22, efficacy essentially the same as 16E2 version 1): highly efficient in reducing tumor volume | anticancer activity [5]: effective when administered alone | anticancer activity (BxPC3 xenograft): far superior to the efficacy of gemcitabine | dose-response efficacy (H2122 xenograft; 1, 3 and 10 mg/kg single IV dose, FIG. 32): efficacious in all doses tested | mice with complete response (CR) (H2122 xenograft; 6 mice/group, without any reversal during the 70-day treatment period): All six | anticancer activity (Colo 205 xenograft): significant anticancer activity | tumor growth delay (TGD) [1]: 53.0 days | tumor growth delay (TGD), percentage of control median TTE [1]: 355% | median TTE [2]: 2.0 days | regression responses ([2]; mouse, in vivo): No regression responses were documented | TGD, % of control [2]: 38% | TGD [2]: 7.1 days | TGD [3]: 193% | MTV(n), median tumor volume on Day 61 [3]: 776 mm^3 | 61-day survivors ([3]; ten mice per group): six | LTTFS (long-term tumor-free survivor) ([3]; ten mice per group): One | PR responses ([3]; ten mice per group): three | transient CR response ([3]; ten mice per group): one
